Drawing on paper PMC4721142, “Randomized controlled studies on the efficacy of antiarthritic agents in inhibiting cartilage degeneration and pain associated with progression of osteoarthritis in the rat” (Arthritis Research & Therapy, 2016), this text covers Effective against NF κβ (p<0.05) for 1 compound.

This assay deals with NF-κB. The assay can be described thus: TNF-α-stimulated NF-κB dual luciferase reporter assay in HeLa cells. The class given is cell-based. In a few lines: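 HeLa cells transfected with NF-κB firefly luciferase and Renilla pRLuc-N3 plasmids (8:1), in triplicate; TNF-α stimulation with drug, luminescence read 5 h later by Dual-Glo. Firefly/Renilla ratio normalised to viable transfected cells, expressed as fold over cells without TNF-α or drug.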

As to `CC1=C(CO)C(=O)O[C@@H]([C@@H](C)[C@H]2CC[C@H]3[C@@H]4C[C@H]5O[C@]56[C@@H](O)C=CC(=O)[C@]6(C)[C@H]4CC[C@]23C)C1` [Withaferin A], the Effective against NF κβ (p<0.05) was in the range of 2 to 17 µM.
